Measured values from the CheMixHub viscosity set.

Assay: xn = mol fraction of the nth substance listed

O=S(=O)([O-])[O-].[NH4+].[NH4+] + O
viscosity [mPa·s], 101 kPa
Conditions | 298.15 K | 308.15 K | 318.15 K
x1 = 0.008901 | 0.9796 | 0.8523 | 0.7339
x1 = 0.01765 | 1.709 | 1.427 | 1.231

O=c1cc[nH]c(=O)[nH]1 + O
viscosity [mPa·s]
Conditions | 293.15 K | 298.15 K | 303.15 K | 308.15 K | 318.15 K
101 kPa, x1 = 9e-05 | – | 0.879 | – | 0.7172 | 0.5784
101 kPa, x1 = 0.00018 | – | 0.9132 | – | 0.7313 | 0.5871
101 kPa, x1 = 0.00027 | – | 0.9292 | – | 0.7541 | 0.6092
101 kPa, x1 = 0.00036 | – | 0.941 | – | 0.7821 | 0.6272
101.3 kPa, x1 = 0.000113 | 1.004 | – | 0.801 | – | –
101.3 kPa, x1 = 0.000164 | – | 0.892 | – | 0.721 | –
101.3 kPa, x1 = 0.000177 | 1.005 | 0.894 | 0.802 | – | –
101.3 kPa, x1 = 0.0002602 | – | 0.894 | – | – | 0.599
101.3 kPa, x1 = 0.0002747 | 1.006 | – | 0.803 | – | –
101.3 kPa, x1 = 0.0003447 | 1.007 | 0.896 | 0.804 | – | –
101.3 kPa, x1 = 0.0004315 | – | 0.896 | – | – | 0.601
101.3 kPa, x1 = 0.0004415 | – | 0.896 | – | 0.725 | 0.601
101.3 kPa, x1 = 0.0004586 | 1.008 | 0.897 | 0.805 | – | –
101.3 kPa, x1 = 0.0004739 | – | 0.897 | – | 0.725 | 0.601
101.3 kPa, x1 = 0.0005438 | 1.009 | – | 0.806 | – | –

OCCCO + O
Conditions | viscosity [mPa·s]
293.15 K, 101.33 kPa, x1 = 0.1597 | 5.035
298.15 K, 101 kPa, x1 = 0.0743 | 1.975
298.15 K, 101 kPa, x1 = 0.1661 | 4.203
298.15 K, 101 kPa, x1 = 0.2338 | 6.223
298.15 K, 101 kPa, x1 = 0.3007 | 8.667
298.15 K, 101 kPa, x1 = 0.3965 | 12.43
298.15 K, 101 kPa, x1 = 0.4726 | 15.67
298.15 K, 101 kPa, x1 = 0.5649 | 19.7
298.15 K, 101 kPa, x1 = 0.6713 | 24.72
298.15 K, 101 kPa, x1 = 0.7492 | 28.53
298.15 K, 101 kPa, x1 = 0.8137 | 32
298.15 K, 101 kPa, x1 = 0.9572 | 39.94
298.15 K, 101.3 kPa, x2 = 0.0622 | 37.15
308.15 K, 101 kPa, x1 = 0.095 | 1.65
308.15 K, 101 kPa, x1 = 0.1968 | 4.202
308.15 K, 101 kPa, x1 = 0.3019 | 6.937
308.15 K, 101 kPa, x1 = 0.4108 | 9.362
308.15 K, 101 kPa, x1 = 0.495 | 11.66
308.15 K, 101 kPa, x1 = 0.6009 | 14.63
308.15 K, 101 kPa, x1 = 0.692 | 17.5
308.15 K, 101 kPa, x1 = 0.7938 | 20.41
308.15 K, 101 kPa, x1 = 0.9232 | 24.43
313.15 K, 101.33 kPa, x1 = 0.5449 | 11.05
323.15 K, 101.33 kPa, x1 = 0.7523 | 11.15

[I-].[Rb+] + O
310.15 K, 101 kPa
Conditions | viscosity [mPa·s]
x1 = 0.000182 | 0.6811
x1 = 0.000907 | 0.69
x1 = 0.001816 | 0.7025
x1 = 0.002695 | 0.7138
x1 = 0.003679 | 0.7268
x1 = 0.005197 | 0.7469
x1 = 0.005988 | 0.7573

CCOC(=O)CCC(=O)OCC + O=C1CCCO1
Conditions | viscosity [mPa·s]
298.15 K, 101 kPa, x2 = 0.95 | 1.745

NC=O + OCC(O)CO
viscosity [mPa·s], 101 kPa
Conditions | x2 = 0.057 | x2 = 0.12 | x2 = 0.189 | x2 = 0.266 | x2 = 0.352 | x2 = 0.449 | x2 = 0.559 | x2 = 0.685 | x2 = 0.83
303.15 K | 4.08 | 5.13 | 7.21 | 11.1 | 15.9 | 27.5 | 53.1 | 106.8 | 214.3
318.15 K | 2.98 | 3.52 | 4.65 | 6.53 | 8.88 | 14.1 | 23.9 | 42.7 | 80.6

CN1CCC[C@H]1c1cccnc1 + OCCCO
100 kPa
Conditions | viscosity [mPa·s]
293.15 K, x1 = 0.5 | 33.15
293.15 K, x1 = 0.6004 | 22.75
293.15 K, x1 = 0.8 | 9.805
298.15 K, x1 = 0.8 | 8.105
303.15 K, x1 = 0.6004 | 13.95
308.15 K, x1 = 0.7 | 7.885
313.15 K, x1 = 0.9 | 3.625
323.15 K, x1 = 0.3 | 13.05
